Measured values from patent US20230240290A1, “USE OF (Z)-3-HEXENYL ESTERS AND METHOD FOR PROTECTING PLANTS AGAINST PESTS” (UNIVERSITAT POLITÈCNICA DE VALÈNCIA, priority 2020, published 2023).

Experiments:
[1] = test system: Tetranychus urticae; test: Development of Tetranychus urticae on exposed tomato plants; format: in vivo; settings: T. urticae, 21 days after release
Experimental: It was also studied whether the defensive activation induced by exposure to (Z)-3-hexenyl propanoate could influence the development of two highly important phytophages in tomato cultivation, the red spider, T. urticae, and the lepidoptera T. absoluta. The individuals used in these experiments came from the captive breeding of these species that are kept in the IVIA described above. The exposure time of the plant to the volatile was tested on both phytophages in two different ways, one where the plant was only exposed to the volatile for 24 hours and then the herbivore to be assayed was immediately released, and the other where the volatile was permanently exposed throughout the experiment.
For this purpose, two climatic chambers were used under the same environmental conditions [25±2° C., 65±5% HR and 14:10 h (L:D) photoperiod], wherein, to avoid interference between the volatiles, one was assigned to the (Z)-3-hexenyl propanoate treatments and one to the control treatment. […]
Eight tomato plants (Lycopersicon esculentum cv. Moneymaker) were introduced in each cage. […] Naked eye sampling was carried out seven, 14, and 21 days after the release of T. urticae, where the total number of T. urticae females in each plant was counted.

[2] = test system: PIN2 (marker gene for the JA signaling pathway); test: Field (commercial greenhouse) assay, transcriptional response of PIN2 in tomato plants; format: in vivo, tomato cv Raf; settings: LD dispenser every 20 m2, at 30 and 60 days
Experimental: To know the behavior of the dispensers loaded with (Z)-3-hexenyl propionate under real cultivation conditions, four commercial greenhouses for tomato cv Raf located in Xilxes (Castellón province), with a history of problems with T. absoluta contamination at the end of winter, were selected. An experimental design of randomized blocks was carried out where each greenhouse was considered a block with two treatments per block and 4 repetitions per treatment. […]
Twenty plants randomly chosen by repetition were sampled weekly for 11 weeks, beginning 30 Jan. […] First, the number of leaflets infested by T. absoluta per plant was counted. Then the number of N. tenuis (adults and nymphs) throughout the apical third of each plant (leaves, flowers and shoots) was counted. Following the methodology described above, 6 samples were taken from the apical part of each plant per repetition, and these samples were immediately introduced into liquid nitrogen to quantify the expression of the PR1 and PIN2 genes (described in Example 1 and Example 2). The expression of these genes was quantified one day before, 4, and 8 weeks after hanging the dispensers in the greenhouses.

CC/C=C\CCOC(=O)CC [(Z)-3-hexenyl propanoate]
Reduction in the number of mites per plant with respect to the control ([1]; plant exposed for 24 h before release): 50.3±6.3% | Reduction in the number of mites per plant with respect to the control ([1]; plant exposed throughout the entire experiment): 83.9±5.0% | Expression of PIN2 compared to plants in the control zone [2]: significantly higher
